Measured values: patent EP1200395B1, “UREA DERIVATIVES AS INHIBITORS OF CCR-3 RECEPTOR” (KIRIN BEER KABUSHIKI KAISHA, priority 1999, dated 2001)

Molecular target: T1, CCR-3 (Homo sapiens, UniProt P51677)
T1 sequence (P51677 1-355): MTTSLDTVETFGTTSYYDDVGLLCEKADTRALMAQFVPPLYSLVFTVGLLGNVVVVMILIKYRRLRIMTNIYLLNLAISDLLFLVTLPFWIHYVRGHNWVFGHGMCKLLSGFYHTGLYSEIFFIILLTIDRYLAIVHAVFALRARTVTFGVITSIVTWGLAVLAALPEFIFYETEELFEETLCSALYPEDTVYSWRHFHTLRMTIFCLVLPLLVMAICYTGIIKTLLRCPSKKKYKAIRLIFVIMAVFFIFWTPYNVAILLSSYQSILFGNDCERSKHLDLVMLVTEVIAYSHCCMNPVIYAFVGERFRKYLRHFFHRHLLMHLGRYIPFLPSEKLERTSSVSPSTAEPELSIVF
Assay: Eotaxin-induced chemotaxis of CCR-3 transfectant cells (CCR3/U937)
Assay type: cell-based
Parameters: expressed in transfected cells; host or cells: U937
Conditions: 10 µM test compound, eotaxin 1 x 10^-9 M, CCR3/U937 cells (Table 3a); for inhibition at 10 µM: U-937
Protocol: The inhibitory activity of the compounds against eotaxin-induced chemotaxis was determined by measuring the inhibition of migration of CCR-3 transfectant cells (CCR3/U937), using a minor modification of the method described by Ohashi, H. et al., Int Arch Allergy Immunol. […] The chemotaxis assay was performed in a 24-well culture plate. Human eotaxin suspended in assay medium was added to the wells at 1 x 10^-9 M along with test compounds at various concentrations. For a positive control, eotaxin was added to the wells without a test compound, and for a negative control, neither eotaxin nor a test compound was added to the wells. Chemotaxicell (Kurabo Co., Ltd.) having 5 micrometers pore size were inserted into each well and 100 micro liters of CCR-3 transfectant cells suspension were added to the top chamber. The plates were incubated at 37 °C for 1 hour. After incubation, migrated cells in lower wells were diluted and counted by particle size distribution analyzer (CDP-500, Sysmex Co., Ltd.).

| Compound | inhibition at 10 µM | Chemotaxis Assay 10 µM (inhibition %) |
| --- | --- | --- |
| CCN(CCCNC(=O)Nc1ccc([N+](=O)[O-])cc1)CCc1ccc(Cl)cc1 [Compound 2, N-(4-Nitrophenylcarbamoyl)-N'-[2-(4-chlorophenyl)ethyl]-N'-ethyl-1,3-diaminopropane] | 100% |  |
| CCN(CCCCNC(=O)Nc1ccc([N+](=O)[O-])cc1)CCc1ccc(Cl)cc1 [Compound 5] |  | 99% |
| CCN(CCCNC(=O)Nc1ccc(Cl)cc1)CCc1ccc(Cl)cc1 [Compound 6] | 100% |  |
| CCN(CCCCNC(=O)Nc1ccccc1)CCc1ccc(Cl)cc1 [Compound 7] |  | 99% |
| CCN(CCCCCNC(=O)Nc1ccccc1)CCc1ccc(Cl)cc1 [Compound 8] |  | 94% |
| CCN(CCCNC(=O)Nc1ccccc1OC)CCc1ccc(Cl)cc1 [Compound 9] | 100% |  |
| CCCN(CCCNC(=O)Nc1ccccc1)CCc1ccc(Cl)cc1 [Compound 10, N-Phenylcarbamoyl-N'-[2-(4-chlorophenyl)ethyl]-N'-propyl-1,3-diaminopropane] | 99% |  |
| CCN(CCCNC(=O)Nc1ccccc1)CCc1ccccc1 [Compound 11] |  | 86% |
| CCCCN(CCCNC(=O)Nc1ccccc1)CCc1ccc(Cl)cc1 [Compound 14] |  | 97% |
| N#Cc1ccc(CN(CCCNC(=O)Nc2ccccc2)CCc2ccc(Cl)cc2)cc1 [Compound 16] |  | 63% |
| O=C(NCCCN(CCc1ccc(Cl)cc1)Cc1ccc(Cl)cc1)Nc1ccccc1 [Compound 17] | 51% |  |
| COc1ccc(CN(CCCNC(=O)Nc2ccccc2)CCc2ccc(Cl)cc2)cc1 [Compound 18] | 58% |  |
| CC(C)(C)c1ccc(CN(CCCNC(=O)Nc2ccccc2)CCc2ccc(Cl)cc2)cc1 [Compound 19] | 47% |  |
| O=C(NCCCN(CCc1ccc(Cl)cc1)Cc1cnc2ccccc2c1)Nc1ccccc1 [Compound 20] | 26% |  |
| Cc1ccc(CN(CCCNC(=O)Nc2ccccc2)CCc2ccc(Cl)cc2)cc1 [Compound 21] | 40% |  |
| CCOC(=O)c1ccc(CN(CCCNC(=O)Nc2ccccc2)CCc2ccc(Cl)cc2)o1 [Compound 22] | 25% |  |
| O=C(NCCCN(CCc1ccc(Cl)cc1)Cc1cccnc1)Nc1ccccc1 [Compound 23] | 82% |  |
| O=C(NCCCN(CCc1ccc(Cl)cc1)Cc1ccncc1)Nc1ccccc1 [Compound 24] |  | 100% |
| O=C(NCCCN(CCc1ccccc1)CCc1ccc(Cl)cc1)Nc1ccccc1 [Compound 25] | 88% |  |
| CN(CCCNC(=O)Nc1ccccc1)CCc1ccc(Cl)cc1 [Compound 27] | 97% |  |
| O=C(NCCCN(CCc1ccc(Cl)cc1)Cc1ccccc1)Nc1ccccc1 [Compound 28] |  | 76% |
| COC(=O)CCCN(CCCNC(=O)Nc1ccc(Br)cc1)C1CCCc2ccccc21 (stereo not drawn) [Compound 29, methyl 4-[[3-(4-bromophenylureido)propyl](1,2,3,4-tetrahydro-1-naphthyl)amino]butylate] |  | 100% |
| COC(=O)CCCN(CCCNC(=O)Nc1ccc(Br)cc1)[C@H](C)c1ccccc1 [Compound 30, Methyl 4-[[3-(4-bromophenylureido)propyl][(1R)-1-phenylethyl]-amino]butylate] |  | 100% |
| COC(=O)CCCN(CCCNC(=O)Nc1ccc(Br)cc1)CCc1ccc(Cl)cc1 [Compound 31, Methyl 4-[[3-(4-bromophenylureido)pcopyl][2-(4-chlorophenyl)-ethyl]amino]butylate] |  | . 97% |
| COC(=O)CCCN(CCCCNC(=O)Nc1ccc(Br)cc1)C1CCCc2ccccc21 (stereo not drawn) [Compound 32, Methyl 4-[[4-(4-bromophenylureido)butyl](1,2,3,4-tetrahydro-1-naphthyl)amino]butylate] |  | 99% |
| COC(=O)CCCN(CCCCCNC(=O)Nc1ccc(Br)cc1)C1CCCc2ccccc21 (stereo not drawn) [Compound 33, Methyl 4-[[5-(4-bromophenylureido)penryl](1,2.3,4-tetrahvdro-1-naphthyl)amino]burylate] |  | 95% |

| Compound | inhibition at 10 µM | Chemotaxis Assay 10 µM (inhibition %) |
| --- | --- | --- |
| COC(=O)CCCN(CCCNC(=O)Nc1ccc(C)cc1)C1CCCc2ccccc21 (stereo not drawn) [Compound 34, Methyl 4-[[3-(4-methylphenylureido)propyl](1,2,3,4-tetrahydro-1-naphthyl)amino]butylate] |  | 96% |
| COC(=O)CCCN(CCCNC(=O)Nc1ccc(Cl)c(Cl)c1)C1CCCc2ccccc21 (stereo not drawn) [Compound 35, Methyl 4-[[3-(3,4-dichlorophenylureido)propyl](1,2,3,4-tetrahydro-1-naphthyl)amino]burylate] |  | 100% |
| COC(=O)CCCN(CCCNC(=O)Nc1ccc(Br)cc1)Cc1ccccc1 [Compound 37] |  | 100% |
| COC(=O)CCCN(CCCNC(=O)Nc1ccc(Br)cc1)Cc1cccs1 [Compound 39] | 78% |  |
| COC(=O)CCCN(CCCNC(=O)Nc1ccc(Br)cc1)Cc1ccc2c(c1)OCO2 [Compound 40] |  | 88% |
| COC(=O)CCCN(CCCNC(=O)Nc1ccc(Br)cc1)CCc1ccccc1 [Compound 42] |  | 96% |
| COC(=O)CCCN(CCCNC(=O)Nc1ccc(Br)cc1)CCc1ccc(OC)c(OC)c1 [Compound 43] | 50% |  |
| COC(=O)CCCN(CCCNC(=O)Nc1ccc(Br)cc1)C(Cc1ccccc1)c1ccccc1 (stereo not drawn) [Compound 45] |  | 62% |
| COC(=O)CCCN(CCCNC(=O)Nc1ccc(Br)cc1)Cc1ccncc1 [Compound 48] |  | 34% |
| COC(=O)CCCN(CCCNC(=O)Nc1ccccc1)CCc1ccc(Cl)cc1 [Compound 49] |  | 100% |
| COC(=O)CCCN(CCCNC(=O)Nc1cccc(Cl)c1)C1CCCc2ccccc21 (stereo not drawn) [Compound 51] |  | 100% |
| COC(=O)CCCN(CCCNC(=O)Nc1cccc(C)c1)C1CCCc2ccccc21 (stereo not drawn) [Compound 52] |  | 100% |
| COC(=O)CCCN(CCCNC(=O)Nc1ccc(Cl)c(C(F)(F)F)c1)C1CCCc2ccccc21 (stereo not drawn) [Compound 53] |  | 93% |
| COC(=O)CCCN(CCCNC(=O)Nc1ccccc1-c1ccccc1)C1CCCc2ccccc21 (stereo not drawn) [Compound 54] |  | 19% |
| COC(=O)CCCN(CCCNC(=O)Nc1ccc(OC)cc1OC)C1CCCc2ccccc21 (stereo not drawn) [Compound 55] |  | 38% |
| COC(=O)CCCN(CCCNC(=O)Nc1ccccc1)C1CCCc2ccccc21 (stereo not drawn) [Compound 56] |  | 100% |
| COC(=O)CCCN(CCCNC(=O)Nc1ccc(OC)cc1)C1CCCc2ccccc21 (stereo not drawn) [Compound 57] |  | 100% |
| COC(=O)CCCN(CCCNC(=O)Nc1ccc(Oc2ccccc2)cc1)C1CCCc2ccccc21 (stereo not drawn) [Compound 58] |  | 100. % |
| COC(=O)CCCN(CCCNC(=O)Nc1cccc2ccccc12)C1CCCc2ccccc21 (stereo not drawn) [Compound 59] |  | 87% |
| O=C(O)CCCN(CCCCNC(=O)Nc1ccc(Br)cc1)C1CCCc2ccccc21 (stereo not drawn) [Compound 62, 4-[[4-(4-Bromophenylureido)butyl](1,2,3,4-tetrahydro-1-naphthyl)-amino]butanoic acid] | 98% |  |
| O=C(O)CCCN(CCCCCNC(=O)Nc1ccc(Br)cc1)C1CCCc2ccccc21 (stereo not drawn) [Compound 63, 4-[[5-(4-Bromophenylureido)pentyl](1,2,3,4-tetrahydro-1-naphthyl)-amino]butanoic acid] | 100% |  |
| Cc1ccc(NC(=O)NCCCN(CCCC(=O)O)C2CCCc3ccccc32)cc1 (stereo not drawn) [Compound 64, 4-[[3-(4-Methylphenylureido)propyl](1,2,3,4-tetrahydro-1-naphthyl)-amino]butanoic acid] | 100% |  |
| O=C(O)CCCN(CCCNC(=O)Nc1ccc(Br)cc1)Cc1ccco1 [Compound 68] |  | 31% |
| O=C(O)CCCN(CCCNC(=O)Nc1ccc(Br)cc1)Cc1cccs1 [Compound 69] |  | 81% |
| O=C(O)CCCN(CCCNC(=O)Nc1ccc(Br)cc1)Cc1ccc2c(c1)OCO2 [Compound 70] |  | 89% |
